Columns and labels:
[1] = test system: breast cancer cells (EO771, 4T1.2); test: Boyden chamber assay, cancer cell invasion (matrigel); format: cell-based, mouse
Protocol: (§1) FIGS. 11A-11C. Lactate-activated macrophage promotes cancer cell adhesion, migration and invasion via Gpr132. (FIG. 11A) Adherence assays. 4T1.2 cells were suspended in fibronectin ([…]) pre-coated plates with CM from spleen-derived macrophages (mf) that were treated with 4T1.2 CM or lactate (5 mM) with or without Gpr132 antibody (6 mg/ml) or normal IgG (6 mg/ml) for 10 min. The adhered cells were stained with crystal violet, dissolved in 1% Triton X-100 and measured by OD590. (FIGS. 11B-11C) Boyden chamber assay of cancer cell migration and invasion. 4T1.2 cells (B) or EO771 cells (FIG. 11C) were plated on the upper chamber inserts, with untreated (Control), 4T1.2 CM-activated or lactate-activated spleen-derived WT or Gpr132-KO macrophages plated in the lower chambers. For invasion assay, the inserts were pre-coated with 60 μl matrigel. After migration for 6 hrs (FIG. 11B) or invasion for 24 hrs (FIG. 11C), the migrated or invaded cells were stained with crystal violet and counted as cells per field of view under microscope (n=3-4); For (FIG. 11C), the first bar of each data set of the bar graphs represents the control mf, and the second bar represents Gpr132KO; *p<0.05; **p<0.01; ***p<0.005; ****p<0.001. Scale bar, 500 μm.
(§2) FIGS. 23A-23B. Cancer cell-derived lactate activates macrophages to promote cancer cell migration and invasion via Gpr132. (FIGS. 23A-23B) Boyden chamber assay. EO771 or 4T1.2 cells were cultured in the presence or absence of oxamic acid (90 mM) for 3 days. CM was harvested after the cells were cultured for another 24 hrs without oxamic acid. […] After migration for 6 hrs (FIG. 23A) or invasion for 24 hrs (FIG. 23B), the migrated or invaded cells were stained with crystal violet and counted as cells per field of view under microscope (n=3-4); for (FIG. 23A), the bars in each data set of the bar graph represent, from left to right, control, EO771, Oxamic acid, and Oxamic acid+Lactate; for (FIG. 23B), the bars in each data set of the bar graph represent, from left to right, control, 4T1.2CM, Oxamic acid, and Oxamic acid+Lactate; *p<0.05; ****p<0.001. […]

[2] = biological target: T1, macrophage Gpr132 (Mus musculus, UniProt Q9Z282); test: Gpr132 co-immunoprecipitation with LC-MS quantification of lactate; format: binding; details: lactate of <3 kDa EO771 CM, BMDM lysate
T1 construct: endogenous in cells; host or cells: bone marrow-derived macrophages (BMDMs) from WT C57BL/6 mice; Gpr132-KO BMDMs served as negative control
T1 sequence (Q9Z282 1-382): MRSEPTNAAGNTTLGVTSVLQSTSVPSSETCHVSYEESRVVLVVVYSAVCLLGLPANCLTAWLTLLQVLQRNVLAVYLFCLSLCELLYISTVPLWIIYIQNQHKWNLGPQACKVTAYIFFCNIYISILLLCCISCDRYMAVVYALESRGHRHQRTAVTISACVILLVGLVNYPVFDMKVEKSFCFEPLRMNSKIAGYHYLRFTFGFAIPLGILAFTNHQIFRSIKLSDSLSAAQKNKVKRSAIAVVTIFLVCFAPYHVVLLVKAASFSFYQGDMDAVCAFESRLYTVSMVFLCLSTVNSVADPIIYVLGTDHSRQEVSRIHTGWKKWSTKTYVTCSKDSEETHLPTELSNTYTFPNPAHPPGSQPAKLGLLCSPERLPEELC
Protocol: To determine whether lactate in the <3 kDa fraction of EO771 CM could bind to macrophage Gpr132, co-immunoprecipitation with anti-Gpr132 in WT and Gpr132-KO BMDMs was performed. Lactate pulled down by Gpr132 was quantified by liquid chromatography-mass spectrometry (LC-MS).
WT or Gpr132-KO BMDM lysate was incubated with concentrated <3 kDa EO771 CM for 4 hrs. This mixture of 1 ml volume was then incubated with 10 μl anti-Gpr132 antibody and 40 μl protein A/G plus-agarose beads overnight at 4° C. After the beads were washed, the IP eluent was collected for lactate quantification. Lactate was extracted and analyzed as reported (7). Briefly, 400 μl of cold MeOH was added to 100 μl of the IP eluent. Samples were mixed and then stored at −80° C. overnight. The next morning, samples were spun at 14,000 g for 10 min, and the supernatant was collected. After drying the supernatant via speedvac, the extract was dissolved in H2O (40 μl) and a portion of this sample (10 μl) analyzed by LC-MS. Lactate was measured using a TSQ Quantiva LC-MS instrument fitted with a Luna NH2 HPLC column ([…], 4.6 mm×100 mm, Phenomenex). The following LC solvents were used: buffer A, 95:5 H2O/ACN, 20 mM ammonium hydroxide, 20 mM ammonium acetate; buffer B, 100% ACN. […] Relative abundance of lactate was determined by measuring the lactate peak area.

[3] = test system: breast cancer cells (4T1.2, EO771); test: Boyden chamber assay, cancer cell migration; format: cell-based, mouse
Protocol: as §1
as §2, with “acid. As a rescue, CM of oxamic acid-treated EO771 or 4T1.2 cells was supplemented with exogenous lactate.” for “acid.”
Migration or invasion of breast cancer cells was examined using 24-well Boyden chambers (Corning, Corning, N.Y.) with transwell inserts of […] pore size, coated without (for migration) or with matrigel (for invasion) as previously reported. […] The migrated or invaded cells were fixed with methanol and stained with crystal violet (0.05%, sigma), and then counted as cells per field of view under microscope or measured as OD570 after crystal violet was dissolved.

[4] = exogenous lactate, WT macrophages

`CC(O)C(=O)O` (stereo not drawn) [lactate] was tested, and the “breast cancer cell invasion induced by activated macrophages, Gpr132 deletion” value ([1]; EO771 cells, 24 hrs, Gpr132-KO macrophages) was “completely abrogated”, the “rescue of invasion by addition to oxamic acid-pretreated cancer cell CM” value [1, 4] was “restored” and the “lactate enrichment in Gpr132 co-IP eluent, WT vs Gpr132-KO macrophages” value [2] was 7.1 fold. For the same compound, the “number of migrated cancer cells with activated WT macrophages” value ([3]; 4T1.2 cells, 6 hrs, vs untreated WT macrophages) was “significantly enhanced”, the “effects on cancer cell migration with Gpr132-KO macrophages” value ([3]; Gpr132 deletion in macrophages) was “attenuated” and the “rescue of migration by addition to oxamic acid-pretreated cancer cell CM” value [3, 4] was “restored”.

Source: US20210095293A1, “METHODS OF TREATING CANCERS WITH GPR132 INHIBITORS” (The Board of Regents of the University of Texas System, priority 2016, published 2021)
